Usually IC50 stands for the point on the concentration scale where inhibition reaches its midpoint.

One compound from US8796329B2, “Method for controlling angiogenesis in animals” (Ziopharm Oncology, Inc., priority 2006, dated 2014) can be followed below.

Several values for one entry are separate records, joined by “and”; a condition that tells them apart may be missing. Equal entries are not always repeated.

The subject of one data set is LL47 (Fibroblast). Kind of data set: CellTiter-Glo Luminescent Cell Viability Assay, LL47. It is filed as cell-based. Conditions: Homo sapiens. Here is the method: (§1) CellTiter-Glo Luminescent Cell Viability Assay (Promega Corporation) is based on quantification of ATP levels in cell cultures. The amount of ATP produced in cell culture reflects the number of viable cells. […] HUVECs and LL47 cells were seeded in 96-well plates in their growth medium. After 24 hours, various doses of the compound of formula (II) were added to both cultures side by side, having six replicates for each dose. At different treatment time points, CellTiter-Glo reagent were added to the cultures following the manufacturer's instructions; luminescence signals were measured with an EnVision™ Multilabel Reader (Perkin Elmer, Wellesley, Mass.) The blank control groups were given saline vehicle only, and positive control groups were given 10 μM T-araC (provided by Southern). Data was analyzed for the mean and standard deviation for each treatment condition. IC50 values of the compound of formula (II) against HUVEC and LL47 cell cultures were determined based on the dose response curves as shown in FIG. 1. There were several test drug concentrations with three treatment time points (2, 4, and 6 days). For the 6-day assay experiment, the culture media with different test concentration treatments was exchanged at Day 4.
Background: Cellular ATP, detected with luciferase, serves as a proxy for viable cell number.

Data set [1] concerns HUVEC (Endothelia). Kind of data set: 3H-thymidine incorporation assay for HUVEC. It is filed as cell-based. Conditions: Homo sapiens. Here is the method:
HUVEC cultures were seeded and treated in 96-well plates, as described above for the CellTiter-Glo viability assay. After treatment of HUVEC cultures with the compound of formula (II), 96-well plates were pulsed with 1 μCi of ^3H-thymidine for the final 6-18 hours of culture and then harvested with a semiautomatic cell harvester onto filters that bind the DNA. Samples were counted in a PerkinElmer Microbeta scintillation and luminescence counter (Trilux) to determine the amount of 3H-TdR uptake. The data was then transferred and processed using an Excel spreadsheet program to provide for the mean and standard deviation for % of control values. The results were analyzed by calculating IC50 values and including a table showing % of control values for each compound tested. There were several test drug concentrations with three treatment time points (2, 4, and 6 days) and 6 replicates for each test concentration as shown in FIG. 2. For the 6-day assay experiment, the culture media with different test concentration treatments was exchanged at Day 4.
In general terms: Dividing cells build labelled thymidine or BrdU into new DNA.

In data set [2] the test system is blood vessel density in Matrigel plugs. Kind of data set: Matrigel Plug in vivo assay, oral dosing. Particulars: 350 mg/kg/dose oral, once daily for 9 days, plugs Day 14, male CD2F1 mice. How it is done: Male CD2F1 mice were used for the Matrigel Plug experiment. There were two groups of mice, five mice in each group, with one group serving as a control and the second group was treated once daily for 9 days with a compound of formula II at 350 mg/kg/dose (0.2 mL/10 g of body weight) by oral administration in a saline solution. The control group received oral saline as a vehicle. Each mouse received two Matrigel plugs. On Day 0, 500 μL Matrigel at 4° C. was subcutaneously injected to each side of the mouse, wherein the injection area was shaved. The injection was done rapidly with an appropriate size needle (21 G-25 G) to ensure the entire contents of the syringe were delivered in one plug. The injected Matrigel rapidly formed a single solid gel plug. On Day 14, the mice were euthanized and the mouse skin was pulled back to expose the plug. The plugs were dissected out and fixed in 10% formalin for histological analysis. Sections of 5 μm from paraffin-embedded plugs were stained with haematoxylin and eosin (H&E) stain. Blood vessel density in a cross sectional area of each Matrigel plug was analyzed using Image Pro-Plus software. Each of the plugs was fixed in 10% formalin.

The test system of a further data set is P388 murine leukemia. Kind of data set: Response of ip implanted P388 murine leukemia to ip and po administration. Conditions: for treatment-related deaths / increase in lifespan (ILS) / median day of death: qld×9; for increase in lifespan (ILS): p=0.000 vs vehicle; for median day of death: vehicle control 11.5. It is filed as in vivo, mice. The source says:
Mice were implanted ip with one million cells of P388 murine leukemia using a 23-gauge needle. The P388 tumor line was maintained as an in vivo passage. The day of tumor implantation was designated as day 0, with treatment beginning on day 1 following tumor implantation. A sufficient number of mice were implanted so that animals with body weights in a range as narrow as possible were selected for the trial.
The compound of formula (II) was formulated in saline on the first day of treatment (day 1) at a concentration of 40 mg/mL. This solution was then diluted to the lower dosing concentrations of 30, 20, and 5 mg/mL. Enough of the compound of formula (II) was prepared on day 1 for the entire dosing period. Each dosing solution was then aliquoted for daily treatments, frozen at −20° C., and thawed on each day of injection. All injections were administered on the basis of exact body weight with the injection volume being 0.2 mL/10 g body weight.
The study consisted of four treatment groups of eight mice per group and one vehicle-treated control group with ten mice, for a total of 42 mice on the first day of treatment. The study design called for the compound of formula (II) to be administered once a day for nine consecutive days (qld×9) by oral gavage at dosages of 800, 600, and 400 mg/kg/dose and by ip injection at a dosage of 100 mg/kg/dose. The control group (group 1) was treated with the vehicle (saline), which was administered po on a qld×9 injection schedule.
The study was terminated 17 days after tumor implantation. Any animal that became moribund was euthanized prior to study termination.
Number of nonspecific deaths, median days of death, and the increase in lifespan based on the median day of death and expressed as a percentage (% ILS).
The individual animals' survival time was used as the endpoint in a life tables analysis (stratified Kaplan-Meier estimation followed by the Mantel-Haenszel log-rank test) in order to statistically compare the survival data between groups.

In data set [3] the test system is HUVEC (Endothelia). Kind of data set: CellTiter-Glo Luminescent Cell Viability Assay, HUVEC. It is filed as cell-based. Conditions: Homo sapiens. How it is done: as §1
In data set [4] the test system is blood vessel density in Matrigel plugs (VEGF, FGFb, heparin as angiogenic stimuli). Kind of data set: Matrigel Plug in vivo assay, intravenous dosing. Further details: species or system C57BL/6 mice. How it is done:
Female C57BL/6 mice around 10-weeks old and Matrigel Matrix High Concentration (from Becton Dickinson) mixed with 50 ng/mL VEGF, 50 ng/mL FGFb, and heparin 3 ng/mL as angiogenic stimuli were used for the Matrigel Plug experiments. There were two groups of mice, five mice in each group, with one group serving as a control and the second group expected to be treated once daily for 9 days with a compound of formula II at 100 mg/kg/dose (0.2 mL/10 g of body weight) by intravenous (i.v.) injection. The control group received oral saline as a vehicle. Each mouse received two Matrigel plugs. On Day 0, 500 μL Matrigel at 4° C. was subcutaneously injected to each side of the mouse, wherein the injection area was shaved. To increase the contact area of injected Matrigel into subcutaneous tissues and form a round shape plug, a wide subcutaneous pocket was formed by swaying the needle point right and left after a routine subcutaneous insertion. The injection was done rapidly with an appropriate size needle (21 G-25 G) to ensure the entire contents of the syringe were delivered in one plug. The injected Matrigel rapidly formed a single solid gel plug. […] Plugs from each group were collected at Day 12. The mice were euthanized and the mouse skin was pulled back to expose the plug. The plugs were dissected out and fixed in 10% formalin for histological analysis. Sections of 5 μm from paraffin-embedded plugs were stained with H&E. Blood vessel density in a cross sectional area of each Matrigel plug was analyzed using Image Pro-Plus software. For each group of mice, at least six Matrigel plugs were quantitatively analyzed to assess any statistical significant difference of microvessel density between groups. The quantitation of microblood vessel density using a compound of formula (II) is shown below.

Consider `C[As](C)SCC(NC(=O)CCC(N)C(=O)O)C(=O)NCC(=O)O` (stereo not drawn) [Compound of Formula (II)], for which the IC50 with LL47 (Fibroblast) (48 h, Day 2) is less than 5000 µM; in the data set on LL47 (Fibroblast) (96 h, Day 4) it was less than 2000 µM; in the data set on LL47 (Fibroblast) (144 h, Day 6) it was less than 1500 µM; in the data set with HUVEC (Endothelia) [1] (Day 2), less than 100 µM; in the data set on HUVEC (Endothelia) [1] (Day 4), less than 1000 µM; in the data set with HUVEC (Endothelia) [1] (Day 6) it was less than 500 µM. Besides, the IC50 in the data set on HUVEC (Endothelia) [3] (48 h, Day 2) was less than 1500 µM; with HUVEC (Endothelia) [3] (96 h, Day 4), less than 1000 µM; in the data set with HUVEC (Endothelia) [3] (144 h, Day 6), less than 500 µM. Also, the “reduction of angiogenesis compared to the control” value in data set [2] is “effective in reducing angiogenesis”. Also, the “increase in lifespan, in words” value in the data set on P388 murine leukemia (100 mg/kg/dose ip) was “tolerated and resulted in a minimal increase in lifespan”; in the data set with P388 murine leukemia (400 mg/kg/dose po), “tolerated and elicited a minimal increase in lifespan”. The treatment-related deaths entry with P388 murine leukemia (100 mg/kg/dose ip) is recorded as “tolerated without treatment-related deaths”; in the data set on P388 murine leukemia (400 mg/kg/dose po), “No treatment-related deaths”. The “increase in lifespan (ILS)” value was 26% in the data set on P388 murine leukemia (100 mg/kg/dose ip) and 30% in the data set on P388 murine leukemia (400 mg/kg/dose po). Also, the “median day of death” value with P388 murine leukemia (100 mg/kg/dose ip) is 14.5 days; with P388 murine leukemia (400 mg/kg/dose po) it was 15.0 days. Besides, in data set [4] (100 mg/kg/dose i.v. once daily, doses 6 and 8 skipped), the “toxicity to C57BL/6 mice” value was “higher than expected toxicity”. Besides, the “microblood vessel density, individual animal” value in data set [4] (100 mg/kg/dose i.v., 7 doses, plugs collected Day 12, female C57BL/6 mice, animals #1-#4) is 3 and 2 (2×) and 0. For the same compound, in data set [4] (100 mg/kg/dose i.v., 7 doses, plugs collected Day 12, female C57BL/6 mice, control average 48.8), the “microblood vessel density, Average” value worked out at 1.75.
